Results: ChEMBL document CHEMBL1255477, “In vitro properties of BAL30072, a novel siderophore sulfactam with activity against multiresistant gram-negative bacilli” (Antimicrob Agents Chemother, 2010)
Values after ≈ are worked out from the molar mass of the structure shown. Active and inactive are the calls of the source. The calls are words filed in the database; no cut-off is given here.

What was measured:
Klebsiella pneumoniae [1] = experiment: Antimicrobial activity against Klebsiella pneumoniae CRE harboring beta-lactamase KPC-2 by broth dilution method; type: functional
Escherichia coli [2] = experiment: Antimicrobial activity against Escherichia coli CF102 harboring beta-lactamase TEM-3 by broth dilution method; type: functional
Escherichia coli [3] = experiment: Antimicrobial activity against Escherichia coli Libyien harboring beta-lactamase CMY-2 by broth dilution method; type: functional
AmpC = AmpC (Escherichia coli, UniProt Q83TT7); experiment: Inhibition of Escherichia coli ATCC 25922 AmpC
AmpC, sequence (Q83TT7 whole entry): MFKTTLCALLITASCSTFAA

Acinetobacter baumannii [4] = experiment: Antimicrobial activity against Acinetobacter baumannii HPA 327009 harboring beta-lactamase OXA-25 by broth dilution method; type: functional
[5] = Inhibition of beta-lactamase KPC-2
Providencia rettgeri = experiment: Antimicrobial activity against Providencia rettgeri J96 harboring beta-lactamase IMP-1 by broth dilution method; type: functional
[6] = Inhibition of Escherichia coli Penicillin-binding protein 3
Acinetobacter baumannii [7] = experiment: Antimicrobial activity against Acinetobacter baumannii HPA I-16 harboring beta-lactamase OXA-27 by broth dilution method; type: functional
Citrobacter freundii = experiment: Antimicrobial activity against Citrobacter freundii by broth dilution method; type: functional
Escherichia coli [8] = experiment: Antimicrobial activity against Escherichia coli by broth dilution method; type: functional
[9] = Inhibition of Beta-lactamase IMP1
Escherichia coli [10] = experiment: Antimicrobial activity against Escherichia coli A harboring beta-lactamase CTX-M 15 by broth dilution method; type: functional
Escherichia coli [11] = experiment: Antimicrobial activity against Escherichia coli W3110 assessed as appearance of long filaments at 64 ug/mL after 3 hrs by phase-contrast microscopy; type: functional, organism-based
Escherichia coli [12] = experiment: Antimicrobial activity against Escherichia coli HB101 harboring beta-lactamase TEM-5 by broth dilution method; type: functional
Klebsiella pneumoniae [13] = experiment: Antimicrobial activity against Klebsiella pneumoniae 1357E harboring beta-lactamase TEM-10 by broth dilution method; type: functional
Acinetobacter baumannii [14] = experiment: Antimicrobial activity against Acinetobacter baumannii HPA74510 harboring beta-lactamase IMP-4 by broth dilution method; type: functional
Escherichia coli [15] = experiment: Antimicrobial activity against Escherichia coli nmcA harboring beta-lactamase NMCA by broth dilution method; type: functional
Pseudomonas aeruginosa [16] = experiment: microbe, parasite or virus in culture; conditions: 18S/H
Serratia marcescens = experiment: Antimicrobial activity against Serratia marcescens S6 harboring beta-lactamase SME-1.AmpC by broth dilution method; type: functional
[17] = tested on: Stenotrophomonas maltophilia; experiment: Antimicrobial activity against Stenotrophomonas maltophilia B715 harboring beta-lactamase L1and L2 by broth dilution method; type: functional
Acinetobacter baumannii [18] = experiment: Antimicrobial activity against Acinetobacter baumannii HPA 4737 harboring beta-lactamase OXA-26 by broth dilution method; type: functional
Escherichia coli [19] = experiment: Antimicrobial activity against Escherichia coli K802N harboring beta-lactamase TEM-3 by broth dilution method; type: functional
[20] = Inhibition of Escherichia coli Penicillin-binding protein 2
[21] = Inhibition of Escherichia coli Penicillin-binding protein 1A
Klebsiella aerogenes = experiment: Antimicrobial activity against Enterobacter aerogenes by broth dilution method; type: functional
Pseudomonas aeruginosa [22] = experiment: Antimicrobial activity against Pseudomonas aeruginosa HPA10586 harboring beta-lactamase VIM-1 by broth dilution method; type: functional
Escherichia coli [23] = experiment: Antimicrobial activity against Escherichia coli W3110 assessed as appearance of spheroplast at 64 ug/mL after 3 hrs by phase-contrast microscopy; type: functional, organism-based
Klebsiella pneumoniae [24] = experiment: Antimicrobial activity against Klebsiella pneumoniae YC harboring beta-lactamase KPC-2,TEM-1and SHV-2 by broth dilution method; type: functional
Klebsiella oxytoca [25] = experiment: Antimicrobial activity against Klebsiella oxytoca by broth dilution method; type: functional
[26] = Inhibition of Escherichia coli Penicillin-binding protein 1B
Acinetobacter sp. = experiment: Antimicrobial activity against Acinetobacter sp. by broth dilution method; type: functional
Klebsiella pneumoniae [27] = experiment: Antimicrobial activity against Klebsiella pneumoniae 26768WU harboring beta-lactamase SHV-5 by broth dilution method; type: functional
Klebsiella oxytoca [28] = experiment: Antimicrobial activity against Klebsiella oxytoca 1028E harboring beta-lactamase K1 by broth dilution method; type: functional

Q: For `C[C@H]1[C@H](NC(=O)/C(=N\OC(C)(C)C(=O)O)c2csc(N)n2)C(=O)N1S(=O)(=O)O` [AZTREONAM], which MIC (Klebsiella pneumoniae [1]) is on record?
A: > 32 µg/mL

Q: And the MIC (Escherichia coli [2])?
A: 32 µg/mL (≈ 73.5 µM)

Q: What about the MIC (Escherichia coli [3]) of the same compound?
A: 16 µg/mL (≈ 36.7 µM)

Q: What about the IC50 (AmpC) of the same compound?
A: 0.06 µM

Q: And the MIC (Acinetobacter baumannii [4])?
A: 16 µg/mL (≈ 36.7 µM)

Q: And the IC50 [5]?
A: > 2500 µM

Q: What about the MIC (Providencia rettgeri) of the same compound?
A: 2 µg/mL (≈ 4.59 µM)

Q: And the IC50 [6]?
A: 0.023 µM

Q: What about the MIC (Acinetobacter baumannii [7]) of the same compound?
A: 32 µg/mL (≈ 73.5 µM)

Q: What about the MIC (Citrobacter freundii) of the same compound?
A: > 32 µg/mL

Q: What about the MIC50 (Citrobacter freundii) of the same compound?
A: > 32 µg/mL

Q: What about the MIC90 (Citrobacter freundii) of the same compound?
A: > 32 µg/mL

Q: And the MIC50 (Escherichia coli [8])?
A: > 32 µg/mL

Q: And the MIC90 (Escherichia coli [8])?
A: > 32 µg/mL

Q: What about the IC50 [9] of the same compound?
A: 1100 µM

Q: And the MIC (Escherichia coli [10])?
A: > 32 µg/mL

Q: What about the Activity (Escherichia coli [11]) of the same compound?
A: Active

Q: And the MIC (Escherichia coli [12])?
A: 32 µg/mL (≈ 73.5 µM)

Q: And the MIC (Klebsiella pneumoniae [13])?
A: > 32 µg/mL

Q: What about the MIC (Acinetobacter baumannii [14]) of the same compound?
A: 32 µg/mL (≈ 73.5 µM)

Q: And the MIC (Escherichia coli [15])?
A: > 32 µg/mL

Q: And the MIC (Pseudomonas aeruginosa [16])?
A: > 32 µg/mL

Q: And the MIC (Serratia marcescens)?
A: 16 µg/mL (≈ 36.7 µM)

Q: And the MIC [17]?
A: 32 µg/mL (≈ 73.5 µM)

Q: And the MIC (Acinetobacter baumannii [18])?
A: 32 µg/mL (≈ 73.5 µM)

Q: What about the MIC (Escherichia coli [19]) of the same compound?
A: > 32 µg/mL

Q: And the IC50 [20]?
A: > 50 µM

Q: And the IC50 [21]?
A: > 50 µM

Q: And the MIC50 (Klebsiella aerogenes)?
A: 4 µg/mL (≈ 9.19 µM)

Q: And the MIC90 (Klebsiella aerogenes)?
A: > 32 µg/mL

Q: What about the MIC (Pseudomonas aeruginosa [22]) of the same compound?
A: 16 µg/mL (≈ 36.7 µM)

Q: What about the Activity (Escherichia coli [23]) of the same compound?
A: Active

Q: What about the MIC (Klebsiella pneumoniae [24]) of the same compound?
A: > 32 µg/mL

Q: And the MIC50 (Klebsiella oxytoca [25])?
A: 16 µg/mL (≈ 36.7 µM)

Q: And the MIC90 (Klebsiella oxytoca [25])?
A: > 32 µg/mL

Q: What about the IC50 [26] of the same compound?
A: > 50 µM

Q: And the MIC50 (Acinetobacter sp.)?
A: > 32 µg/mL

Q: What about the MIC90 (Acinetobacter sp.) of the same compound?
A: > 32 µg/mL

Q: What about the MIC (Klebsiella pneumoniae [27]) of the same compound?
A: > 32 µg/mL

Q: What about the MIC (Klebsiella oxytoca [28]) of the same compound?
A: > 32 µg/mL
